Patent publication US20240366644A1, “ANTI-INFLAMMATORY APPLICATION OF GINSENOSIDE RD” (priority 2022, published 2024)

Assays:
[1] = system: xylene-induced swelling of mouse ears; test: Xylene-induced swelling of mouse ears; assay type: in vivo, Kunming mice; settings: for Ear mass difference / Swelling degree: 4 h after xylene
Description: […] KM mice, weighing 18-22 g, were randomly grouped, with ten mice in each group. The groups include a model group, a positive control group (Indomethacin, 10 mg/kg), a ginsenoside Rd low-dose group (5 mg/kg), and a ginsenoside Rd high-dose group (10 mg/kg). After 30 min of gavage administration of mice (the model group was administrated with the equal volume of 0.5% sodium carboxymethylcellulose by gavage), 0.03 ml of xylene was evenly applied to both sides of the right ear of each mouse in each group to cause inflammations on both sides, and the left ear of the mouse was not applied as a control. After 4 h, the mouse was killed by dislocation of cervical vertebra, the two ears of the mouse were cut off along the auricle, round ear slices of the same size (a diameter of 6 mm) were taken at the same position of the left and right ears and weighed respectively, a mass difference of the two ear slices was used as an ear swelling degree, and a swelling inhibition rate was calculated.

[2] = system: mice with chronic bronchial asthma; test: Serum IL-4 and INF-γ in OVA-sensitised mice with chronic bronchial asthma; assay type: in vivo, BALB/c mice; settings: for IL-4 in serum / INF-γ in serum: seven days, 24 h after the last excitation
Description: After adaptive feeding (20-25° C., a humidity of 50-60%) for one week, the mice were randomly divided into a blank group, a model group, a ginsenoside Rd high-dose group, and a ginsenoside Rd low-dose group, with ten […] in each group.
Except for the blank group, the mice in the other groups were intraperitoneally injected with 0.2 ml of sensitization solution (containing 50 μg of OVA) on the Day 1, Day 8 and Day 15, respectively. Starting on Day 22, the mice in each group were placed in a nebulizer and inhaled with 2% OVA for exciting asthma. This inhalation was performed once a day, 45 min each time, for seven consecutive days.
Administration by gavage was performed 30 min before each asthma stimulation, once a day for seven consecutive days. The blank group and the model group were administrated with normal saline by gavage, the high-dose group was administrated with 10 mg/kg ginsenoside Rd by gavage, and the low-dose group was administrated with 5 mg/kg ginsenoside Rd by gavage.
24 h after the last excitation, the mice were sampled, blood was collected from the eyeballs and separated to obtain serum, and IL-4 and INF-γ in the serum were detected.

[3] = system: influenza virus-infected mice; test: TNF-α and IL-6 in serum and lung tissues of influenza virus-infected mice; assay type: in vivo, ICR mice
Description: A lump of absorbent cotton was put into a beaker of 200-300 mL, and then poured with an appropriate amount of ether (till the absorbent cotton was wetted). The beaker filled with the absorbent cotton was inverted, and added with the mice for anesthesia. When the mice were extremely excited and then obviously weak, that is, the anesthesia depth was moderate, the mice were taken out. The ether-anesthetized mice were placed on their backs, with the mouse head facing upward, and then were subjected to intranasal infection. A diluted influenza virus was added to nostrils at 0.03 mL/nostril. A blank group was administrated with normal saline, instead of a virus suspension.
The mice were randomly divided into four groups, that is, drug groups (10 mg/kg, 5 mg/kg), a model group, and a blank group were administrated by routine gavage on the day before infection, once a day; and the blank group and the model group were perfused with the equal volume of normal saline.
On the Day 1, Day 3, Day 5 and Day 7 after influenza virus infection, venous blood was collected from the plexus ophthalmicus, and blood from mice in each group was preserved, subjected to serum separation, and stored in a refrigerator for later use.
According to the instructions of a test kit, various detection and analysis were carried out, and TNF-α and IL-6 concentrations were calculated based on the standard detection and standard curve plotting.
On the Day 1, Day 3, Day 5 and Day 7 after influenza virus infection, after the mice were killed by bleeding from the eyeballs, the whole lungs were picked, homogenized in a homogenizer according to a ratio of lung weight (g):normal saline (mL)=1:9, and centrifuged; and a supernatant was stored in the refrigerator for later use. According to the instructions of a test kit, various detection and analysis were carried out, and TNF-α and IL-6 concentrations were calculated based on the standard detection and standard curve plotting.

[4] = 5 mg/kg gavage 30 min before xylene
[5] = 10 mg/kg gavage 30 min before xylene
[6] = high-dose 10 mg/kg gavage once a day
[7] = low-dose 5 mg/kg gavage once a day
[8] = high-dose 10 mg/kg gavage once a day, 1 d after infection
[9] = high-dose 10 mg/kg gavage once a day, 3 d after infection
[10] = high-dose 10 mg/kg gavage once a day, 5 d after infection
[11] = high-dose 10 mg/kg gavage once a day, 7 d after infection
[12] = low-dose 5 mg/kg gavage once a day, 1 d after infection
[13] = low-dose 5 mg/kg gavage once a day, 3 d after infection
[14] = low-dose 5 mg/kg gavage once a day, 5 d after infection
[15] = low-dose 5 mg/kg gavage once a day, 7 d after infection

For `CC(C)=CCC[C@](C)(O[C@@H]1O[C@H](CO)[C@@H](O)[C@H](O)[C@H]1O)[C@H]1CC[C@]2(C)[C@@H]1[C@H](O)C[C@@H]1[C@@]3(C)CC[C@H](O[C@@H]4O[C@H](CO)[C@@H](O)[C@H](O)[C@H]4O[C@@H]4O[C@H](CO)[C@@H](O)[C@H](O)[C@H]4O)C(C)(C)[C@@H]3CC[C@]12C` [Ginsenoside Rd, ginsenoside Rd], the Ear mass difference [1, 4] was 11.84 ± 1.02 mg, the Swelling degree [1, 4] was 7.56 ± 2.05 (mg) (%) and the “ear swelling inhibition rate compared with Indomethacin” value ([1]; 10 mg/kg) was “close to that of Indomethacin”. The Ear mass difference [1, 5] was 7.68 ± 0.39 mg, the Swelling degree [1, 5] was 6.59 ± 1.96 (mg) (%) and the inhibition at 5 mg/kg ([1]; Mus musculus, po, ear swelling, 5 mg/kg gavage, read-out: Inhibition rate) was 30.3%. The inhibition at 10 mg/kg ([1]; Mus musculus, po, ear swelling, 10 mg/kg gavage, read-out: Inhibition rate) was 39.3%, the “ear swelling of mice caused by xylene” value ([1]; compared with the model group) was “significantly inhibit ear swelling” and the IL-4 in serum [2, 6] was 36.11 ± 10.98 pg/mL. It also gave an INF-γ in serum [2, 6] of 102.48 ± 7.81, an IL-4 in serum [2, 7] of 10.72 ± 16.74 pg/mL and an INF-γ in serum [2, 7] of 95.34 ± 13.59. For the same compound, the “expression of IL-4” value ([2]; mouse, in vivo) was “reduce the expression of IL-4”, the “expression of INF-γ” value ([2]; mouse, in vivo) was “increase the expression of INF-γ” and the “Lung tissue IL-6” value [3, 8] was 43.56 ± 3.46 pg/mL. The “Lung tissue TNF-α” value [3, 8] was 31.34 ± 3.25 pg/mL, the “Serum IL-6” value [3, 8] was 46.21 ± 3.03 pg/mL and the “Serum TNF-α” value [3, 8] was 26.53 ± 1.02 pg/mL. For the same compound, the “Lung tissue IL-6” value [3, 9] was 43.47 ± 2.58 pg/mL, the “Lung tissue TNF-α” value [3, 9] was 32.09 ± 2.51 pg/mL and the “Serum IL-6” value [3, 9] was 46.52 ± 2.23 pg/mL. The “Serum TNF-α” value [3, 9] was 26.83 ± 2.04 pg/mL, the “Lung tissue IL-6” value [3, 10] was 42.39 ± 3.41 pg/mL and the “Lung tissue TNF-α” value [3, 10] was 31.97 ± 2.94 pg/mL. For the same compound, the “Serum IL-6” value [3, 10] was 45.79 ± 3.19 pg/mL, the “Serum TNF-α” value [3, 10] was 26.99 ± 1.55 pg/mL and the “Lung tissue IL-6” value [3, 11] was 42.21 ± 2.64 pg/mL. The “Lung tissue TNF-α” value [3, 11] was 30.08 ± 3.28 pg/mL, the “Serum IL-6” value [3, 11] was 45.23 ± 2.95 pg/mL and the “Serum TNF-α” value [3, 11] was 25.88 ± 1.66 pg/mL. For the same compound, the “Lung tissue IL-6” value [3, 12] was 46.86 ± 2.76 pg/mL, the “Lung tissue TNF-α” value [3, 12] was 32.98 ± 2.27 pg/mL and the “Serum IL-6” value [3, 12] was 47.15 ± 2.31 pg/mL. The “Serum TNF-α” value [3, 12] was 28.32 ± 1.21 pg/mL, the “Lung tissue IL-6” value [3, 13] was 46.29 ± 2.05 pg/mL and the “Lung tissue TNF-α” value [3, 13] was 34.72 ± 2.44 pg/mL. For the same compound, the “Serum IL-6” value [3, 13] was 47.22 ± 2.57 pg/mL, the “Serum TNF-α” value [3, 13] was 28.19 ± 1.27 pg/mL and the “Lung tissue IL-6” value [3, 14] was 46.21 ± 2.73 pg/mL. For the same compound, the “Lung tissue TNF-α” value [3, 14] was 32.14 ± 2.16 pg/mL, the “Serum IL-6” value [3, 14] was 46.62 ± 2.01 pg/mL and the “Serum TNF-α” value [3, 14] was 28.07 ± 1.43 pg/mL. The “Lung tissue IL-6” value [3, 15] was 46.52 ± 3.02 pg/mL, the “Lung tissue TNF-α” value [3, 15] was 30.86 ± 3.05 pg/mL and the “Serum IL-6” value [3, 15] was 46.59 ± 3.46 pg/mL. For the same compound, the “Serum TNF-α” value [3, 15] was 27.94 ± 1.16 pg/mL and the “inflammatory factors TNF-α and IL-6 after influenza virus infection” value ([3]; mouse, in vivo) was “could down-regulate the related inflammatory factors”.
